Results reported in patent US7220732B2, “Compounds useful as photodynamic therapeutic agents” (priority 2002, dated 2007).

Columns and labels:
[1] = Spectroscopic absorbance properties; format: physicochemical
Text: (§1) The absorption bands of each photosensitiser are relatively insensitive to solvent changes with solutions in water/Cremophor resulting in a further bathochromic shift of ˜10 nm (Table 1). Excitation of chloroform solutions of the 2a and 4a at 635 nm gave a fluorescence band at 672 and 673 nm respectively (FIG. 2, Table 2). […] The reduction in fluorescence quantum yield in the series would imply more efficient population of the triplet excited state which would benefit singlet oxygen production. The ability of 2 and 4 to produce singlet oxygen would be a prerequisite to them being potential PDT agents.

[2] = Fluorescence emission and fluorescence quantum yield; format: physicochemical
Text: as §1

[3] = Confocal microscopy subcellular localisation; format: cell-based; details: FIGS. 17–19
Method: Cells were seeded at a density of 30,000 cells/well in chamber slides and allowed to adhere for 24 hr. 2a (10^−5 M) was then added to each chamber and incubated at 37° C. in the dark for either 1 hr or 3 hrs at 37° C.—a one hour incubation was used for FIGS. 4 and 5. The medium was removed and the cells were washed 4 times with drug-free (2a free) medium. The cells were then fixed with 3.7% (v/v) formaldehyde for 15 min at 37° C. The fixative solution was removed and the cells were washed twice with sterile PBS. DAPI (4′,6-diamidino-2-phenylindole) nuclear stain (1/1000) was then incubated with the cells for 10 min at 37° C., following which the cells were washed twice with PBS. Cells were then mounted in Vectashield (Trade Mark) mounting medium.
The cells were viewed using a Leica TCSSL Confocal Laser Scanning microscope (the LSM510 META Confocal Microscope was used to visualise DAPI and 2a simultaneously).
These could be lysosomes which have a typical size range of 0.2–2 μm; peroxisomes which have a typical size range of 0.5–1.5 μm; or endosomes which have a typical size range of 0.2–2 μm. It will be appreciated that localisation of the photosensitising compounds of the invention in different subcellular sites may impact on how effective the photodynamic therapy may be.

[4] = Water/Cremophor (100:1), room temperature

F[B-]1(F)n2c(-c3ccccc3)cc(-c3ccccc3)c2N=C2C(c3ccccc3)=CC(c3ccccc3)=[N+]21 [Compound 2a]
fwhm (full width at half maximum) ([1]; CHCl3, room temperature): 49 nm
ε (molar extinction coefficient) ([1]; CHCl3, room temperature): 79,000 M^−1cm^−1
λmax (absorbance) ([1]; CHCl3, room temperature): 650 nm
fwhm (full width at half maximum) [1, 4]: 53 nm
λmax (absorbance) [1, 4]: 658 nm
λ em (fluorescence band) ([2]; CHCl3, room temperature, excitation at 635 nm): 672 nm
λ em (fluorescence band) [2, 4]: 683 nm
Φf (fluorescence quantum yield) ([2]; relative to magnesium tetra-tert-butylphthalocyanine in CHCl3, room temperature): 0.34
cellular localisation [3]: both diffuse and punctuated cytoplasmic localisation
